Measurements from the supplement of paper PMC4932681.
Where “and” joins values, the source holds several entries; their conditions need not be identical. Equal entries are not always repeated. Structures can show the parent of a compound that is named as a salt.

Assays:
MCF-7 [1] = assay: relative IC50 (midpoint of fitted logistic curve, plateau may be below 50% inhibition; CellTiter-Glo viability); higher = less potent; conditions: 72 h
How it was run: (§1)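 CellTiter-Glo viability was the readout, taken on a PHERAstar and normalised to vehicle-only and positive controls. It was measured after breast cancer cell lines and their resistant derivatives spent 72 h at 37 °C in 384-well plates containing library drugs at five concentrations spanning a 10 000-fold range, with 1 μM of the selecting drug in the medium of resistant lines. From logistic dose–response fits in the Breeze pipeline came drug sensitivity score, relative IC50 (curve midpoint) and top-dose inhibition.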

BT-474 Tam2 [2] = assay: as above; conditions: 4-OH-tamoxifen in medium 1 µM; 72 h
How it was run: as §1

ZR-75-1 [3] = assay: as above; conditions: 72 h
How it was run: as §1

T-47D Tam1 [4] = assay: as above; conditions: 4-OH-tamoxifen in medium 1 µM; 72 h
How it was run: as §1

ZR-75-1 Tam1 [5] = assay: as above; conditions: 4-OH-tamoxifen in medium 1 µM; 72 h
How it was run: as §1

T-47D Tam2 [6] = assay: as above; conditions: 4-OH-tamoxifen in medium 1 µM; 72 h
How it was run: as §1

ZR-75-1 Tam2 [7] = assay: as above; conditions: 4-OH-tamoxifen in medium 1 µM; 72 h
How it was run: as §1

T-47D [8] = assay: as above; conditions: 72 h
How it was run: as §1

MCF-7 Tam1 [9] = assay: as above; conditions: 4-OH-tamoxifen in medium 1 µM; 72 h
How it was run: as §1

MCF-7 [10] = assay: drug sensitivity score (DSS) (DSS (dimensionless)); higher = more sensitive; extreme values may be limits of the assay; conditions: 72 h
How it was run: as §1

BT-474 Tam2 [11] = assay: as above; conditions: 4-OH-tamoxifen in medium 1 µM; 72 h
How it was run: as §1

ZR-75-1 [12] = assay: as above; conditions: 72 h
How it was run: as §1

BT-474 Tam1 [13] = assay: as above; conditions: 4-OH-tamoxifen in medium 1 µM; 72 h
How it was run: as §1

T-47D Tam1 [14] = assay: as above; conditions: 4-OH-tamoxifen in medium 1 µM; 72 h
How it was run: as §1

ZR-75-1 Tam1 [15] = assay: as above; conditions: 4-OH-tamoxifen in medium 1 µM; 72 h
How it was run: as §1

T-47D Tam2 [16] = assay: as above; conditions: 4-OH-tamoxifen in medium 1 µM; 72 h
How it was run: as §1

ZR-75-1 Tam2 [17] = assay: as above; conditions: 4-OH-tamoxifen in medium 1 µM; 72 h
How it was run: as §1

T-47D [18] = assay: as above; conditions: 72 h
How it was run: as §1

BT-474 [19] = assay: as above; conditions: 72 h
How it was run: as §1

MCF-7 Tam1 [20] = assay: as above; conditions: 4-OH-tamoxifen in medium 1 µM; 72 h
How it was run: as §1

BT-474 Tam1 [21] = assay: relative IC50 (midpoint of fitted logistic curve, plateau may be below 50% inhibition; CellTiter-Glo viability); higher = less potent; conditions: 4-OH-tamoxifen in medium 1 µM; 72 h
How it was run: as §1

BT-474 [22] = assay: as above; conditions: 72 h
How it was run: as §1

| SMILES | relative IC50 (MCF-7 [1]; 4-OH-tamoxifen in medium 0 µM) | relative IC50 (MCF-7 [1]; 4-OH-tamoxifen in medium 1 µM) | relative IC50 (BT-474 Tam2 [2]) | relative IC50 (T-47D Tam1 [4]) | relative IC50 (T-47D Tam2 [6]) | relative IC50 (T-47D [8]; 4-OH-tamoxifen in medium 0 µM) | relative IC50 (T-47D [8]; 4-OH-tamoxifen in medium 1 µM) | relative IC50 (MCF-7 Tam1 [9]) | relative IC50 (BT-474 Tam1 [21]) | relative IC50 (BT-474 [22]; 4-OH-tamoxifen in medium 0 µM) | relative IC50 (BT-474 [22]; 4-OH-tamoxifen in medium 1 µM) | relative IC50 (ZR-75-1 [3]; 4-OH-tamoxifen in medium 0 µM) | relative IC50 (ZR-75-1 [3]; 4-OH-tamoxifen in medium 1 µM) | relative IC50 (ZR-75-1 Tam1 [5]) | relative IC50 (ZR-75-1 Tam2 [7]) | drug sensitivity score (MCF-7 [10]; 4-OH-tamoxifen in medium 0 µM) | drug sensitivity score (MCF-7 [10]; 4-OH-tamoxifen in medium 1 µM) | drug sensitivity score (BT-474 Tam2 [11]) | drug sensitivity score (ZR-75-1 [12]; 4-OH-tamoxifen in medium 0 µM) | drug sensitivity score (ZR-75-1 [12]; 4-OH-tamoxifen in medium 1 µM) | drug sensitivity score (BT-474 Tam1 [13]) | drug sensitivity score (T-47D Tam1 [14]) | drug sensitivity score (ZR-75-1 Tam1 [15]) | drug sensitivity score (T-47D Tam2 [16]) | drug sensitivity score (ZR-75-1 Tam2 [17]) | drug sensitivity score (T-47D [18]; 4-OH-tamoxifen in medium 0 µM) | drug sensitivity score (T-47D [18]; 4-OH-tamoxifen in medium 1 µM) | drug sensitivity score (BT-474 [19]; 4-OH-tamoxifen in medium 0 µM) | drug sensitivity score (BT-474 [19]; 4-OH-tamoxifen in medium 1 µM) | drug sensitivity score (MCF-7 Tam1 [20]) |
| --- | --- | --- | --- | --- | --- | --- | --- | --- | --- | --- | --- | --- | --- | --- | --- | --- | --- | --- | --- | --- | --- | --- | --- | --- | --- | --- | --- | --- | --- | --- |
| C[C@@]1(C(=O)Nc2ccc(F)nc2)CCCN1c1nc(Nc2cc(C3CC3)n[nH]2)c2cccn2n1 | 78.9 nM | 80.2 nM | > 10000 nM | 1160 nM | 1140 nM | 921 nM | 210 nM | 197 nM | – | – | – | > 10000 nM | > 10000 nM | > 10000 nM | > 10000 nM | 17.7 | 21 | 0 | 0 | 0 | 0.49 | 4.88 | 0 | 6.16 | 0 | 5.37 | 7.74 | 0.215 | 0.473 | 13.2 |
| Cc1cnc(NC(=O)Nc2cc(Br)c(C)cc2OC[C@@H]2CNCCO2)cn1 | – | – | > 1000 nM | > 1000 nM | > 1000 nM | > 1000 nM | > 1000 nM | > 1000 nM | > 1000 nM | > 1000 nM | > 1000 nM | > 1000 nM | > 1000 nM | > 1000 nM | > 1000 nM | 2.37 | 0.181 | 0 | 0 | 0 | 0 | 0 | 0 | 0 | 0 | 0 | 0 | 0 | 0 | 0 |
| Cc1cc2c(F)c(Oc3ncnn4cc(OC[C@@H](C)O)c(C)c34)ccc2[nH]1 [Brivanib] | > 1000 nM | > 1000 nM | > 1000 nM | > 1000 nM | > 1000 nM | > 1000 nM | > 1000 nM | > 1000 nM | – | > 1000 nM | > 1000 nM | > 1000 nM | > 1000 nM | > 1000 nM | > 1000 nM | 0 | 0 | 0 | 0 | 0 | 0 | 0 | 0 | 0 | 0 | 0 | 0 | 0 | 0 | 0 |
| COc1cc2c(Oc3ccc4[nH]c(C)cc4c3F)ncnc2cc1OCCCN1CCCC1 [Cediranib (AZD2171, Recentin)] | – | > 1000 nM | > 1000 nM | > 1000 nM | > 1000 nM | > 1000 nM | – | > 1000 nM | – | > 1000 nM | 304 nM | > 1000 nM | > 1000 nM | > 1000 nM | > 1000 nM | 0.0072 | 0 | 0 | 0 | 0 | 0.271 | 0 | 0 | 0 | 0 | 0 | 0.609 | 0 | 2.04 | 0 |
| O=C(/C=C/c1cccnc1)NCCCCC1CCN(C(=O)c2ccccc2)CC1 [Daporinad (FK-866 HCl)] | 19 nM | 54.1 nM | – | 3.87 nM | 14.7 nM | 7.21 nM | 13.2 nM | > 1000 nM | 94.3 nM | – | 74.3 nM | > 1000 nM | > 1000 nM | > 1000 nM | > 1000 nM | 15.8 | 10.4 | 1.29 | 0 | 0 | 5.63 | 27.2 | 0 | 18.9 | 0 | 24.1 | 20.7 | 0 | 8.73 | 0 |
| Cc1nc(Nc2ncc(C(=O)Nc3c(C)cccc3Cl)s2)cc(N2CCN(CCO)CC2)n1 [Dasatinib] | > 1000 nM | > 1000 nM | > 1000 nM | 10.3 nM and 10.7 nM | 9.43 nM and 16.4 nM | > 1000 nM | 41.6 nM | > 1000 nM | 130 nM and 374 nM | > 1000 nM | > 1000 nM | > 1000 nM | > 1000 nM | > 1000 nM | > 1000 nM | – | – | – | 0 | 0 | 2.9 and 1.26 | 8.54 and 7.6 | 0 | 8.11 and 4.97 | 0 | 0 | – | 0 | 0 | 0 |

The next lines start with results.

| relative IC50 (MCF-7 [1]; 4-OH-tamoxifen in medium 0 µM) | relative IC50 (MCF-7 [1]; 4-OH-tamoxifen in medium 1 µM) | relative IC50 (BT-474 Tam2 [2]) | relative IC50 (T-47D Tam1 [4]) | relative IC50 (T-47D Tam2 [6]) | relative IC50 (T-47D [8]; 4-OH-tamoxifen in medium 0 µM) | relative IC50 (T-47D [8]; 4-OH-tamoxifen in medium 1 µM) | relative IC50 (MCF-7 Tam1 [9]) | relative IC50 (BT-474 Tam1 [21]) | relative IC50 (BT-474 [22]; 4-OH-tamoxifen in medium 0 µM) | relative IC50 (BT-474 [22]; 4-OH-tamoxifen in medium 1 µM) | SMILES | relative IC50 (ZR-75-1 [3]; 4-OH-tamoxifen in medium 0 µM) | relative IC50 (ZR-75-1 [3]; 4-OH-tamoxifen in medium 1 µM) | relative IC50 (ZR-75-1 Tam1 [5]) | relative IC50 (ZR-75-1 Tam2 [7]) | drug sensitivity score (MCF-7 [10]; 4-OH-tamoxifen in medium 0 µM) | drug sensitivity score (MCF-7 [10]; 4-OH-tamoxifen in medium 1 µM) | drug sensitivity score (BT-474 Tam2 [11]) | drug sensitivity score (ZR-75-1 [12]; 4-OH-tamoxifen in medium 0 µM) | drug sensitivity score (ZR-75-1 [12]; 4-OH-tamoxifen in medium 1 µM) | drug sensitivity score (BT-474 Tam1 [13]) | drug sensitivity score (T-47D Tam1 [14]) | drug sensitivity score (ZR-75-1 Tam1 [15]) | drug sensitivity score (T-47D Tam2 [16]) | drug sensitivity score (ZR-75-1 Tam2 [17]) | drug sensitivity score (T-47D [18]; 4-OH-tamoxifen in medium 0 µM) | drug sensitivity score (T-47D [18]; 4-OH-tamoxifen in medium 1 µM) | drug sensitivity score (BT-474 [19]; 4-OH-tamoxifen in medium 0 µM) | drug sensitivity score (BT-474 [19]; 4-OH-tamoxifen in medium 1 µM) | drug sensitivity score (MCF-7 Tam1 [20]) |
| --- | --- | --- | --- | --- | --- | --- | --- | --- | --- | --- | --- | --- | --- | --- | --- | --- | --- | --- | --- | --- | --- | --- | --- | --- | --- | --- | --- | --- | --- | --- |
| > 1000 nM | > 1000 nM | – | > 1000 nM | > 1000 nM | > 1000 nM | > 1000 nM | > 1000 nM | > 1000 nM | > 1000 nM | > 1000 nM | O=C(Nc1c[nH]nc1-c1nc2ccc(CN3CCOCC3)cc2[nH]1)NC1CC1 [AT9283] | > 1000 nM | > 1000 nM | > 1000 nM | > 1000 nM | 0 | 0 | 0 | 0 | 0 | 0 | 0 | 0 | 0 | 0 | 0 | 0 | 0 | 0 | 0 |
| > 1000 nM | > 1000 nM | > 1000 nM | > 1000 nM | > 1000 nM | > 1000 nM | > 1000 nM | > 1000 nM | – | > 1000 nM | > 1000 nM | COc1cc(CCc2cc(NC(=O)c3ccc(N4CC(C)NC(C)C4)cc3)n[nH]2)cc(OC)c1 (stereo not drawn) [AZD4547] | > 1000 nM | > 1000 nM | > 1000 nM | > 1000 nM | 0 | 0 | 0 | 0 | 0 | 0 | 0 | 0 | 0 | 0 | 0 | 0 | 0 | 0 | 0 |
